Assay results from the Kinase Knowledgebase extract (Sharma et al. 2016).

Molecular target: MAPK14 (human) (UniProt Q16539)
Assay: Assessment of MAPK14 Kinase Activity

Chain of MAPK14 (human) (Q16539 whole entry, looked up): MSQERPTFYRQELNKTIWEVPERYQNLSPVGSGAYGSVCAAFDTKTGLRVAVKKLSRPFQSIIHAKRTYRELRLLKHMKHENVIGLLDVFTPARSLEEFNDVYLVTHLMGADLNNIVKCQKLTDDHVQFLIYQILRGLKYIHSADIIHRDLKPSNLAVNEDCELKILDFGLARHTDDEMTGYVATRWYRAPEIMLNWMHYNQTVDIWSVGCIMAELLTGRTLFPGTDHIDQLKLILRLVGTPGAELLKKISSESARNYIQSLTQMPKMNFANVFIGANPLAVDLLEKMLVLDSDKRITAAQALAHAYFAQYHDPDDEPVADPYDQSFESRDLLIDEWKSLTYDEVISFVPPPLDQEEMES

| SMILES | IC50 [nM] |
| --- | --- |
| CCc1ccc(-c2nc(-c3cccc(C)c3)c(-c3cc[n+]([O-])cc3)s2)cc1 | 1700 |
| CS(=O)(=O)c1ccc(-c2nc(-c3ccc(F)cc3)c(-c3ccncc3)s2)cc1 | 51 |
| Cc1cccc(-c2nc(-c3ccccc3)sc2-c2ccncc2)c1 | 200 |
| CC(=O)N(C)c1nc(-c2cccc(C)c2)c(-c2ccncc2)s1 | 48 |
| CC(=O)Nc1nc(-c2ccccc2C)c(-c2ccncc2)s1 | 340 |
| COc1ccc(-c2nc(NC(C)=O)sc2-c2ccncc2)cc1 | 74 |
| COc1ccccc1-c1nc(NC(C)=O)sc1-c1ccncc1 | 1300 |
| Cc1cccc(-c2nc(-c3ccc(C(=O)O)cc3)sc2-c2ccncc2)c1 | 210 |
| CC(=O)Nc1nc(-c2ccccc2Cl)c(-c2ccncc2)s1 | 260 |
| Cc1cccc(-c2nc(-c3cccc(C)c3)c(-c3ccncc3)s2)c1 | 74 |
| Cc1cccc(-c2nc(-c3ccccc3C)sc2-c2ccncc2)c1 | 69 |
| CC(=O)Nc1nc(-c2cccc(F)c2)c(-c2ccncc2)s1 | 140 |
| COc1cccc(-c2nc(NC(C)=O)sc2-c2ccncc2)c1 | 73 |
| CC(=O)Nc1nc(-c2ccc(C)cc2)c(-c2ccncc2)s1 | 76 |

These reach a lower IC50. Values come first.

| IC50 [nM] | SMILES |
| --- | --- |
| 45 | CC(=O)Nc1nc(-c2ccc(Cl)cc2)c(-c2ccncc2)s1 |
| 43 | CC(=O)Nc1nc(-c2cccc(Cl)c2)c(-c2ccncc2)s1 |
| 41 | Cc1ccc(-c2nc(-c3cccc(C)c3)c(-c3ccncc3)s2)cc1 |
| 31 | Cc1cccc(-c2nc(C(C)(C)C)sc2-c2ccncc2)c1 |
| 27 | Cc1cccc(-c2nc(C)sc2-c2ccncc2)c1 |
| 22 | CSc1ccc(-c2nc(-c3cccc(C)c3)c(-c3ccncc3)s2)cc1 |
| 15 | Cc1cccc(-c2nc(-c3ccc([S+](C)[O-])cc3)sc2-c2ccncc2)c1 (centres undefined) |
| 8.9 | CC(=O)Nc1nc(-c2cccc(C)c2)c(-c2ccncc2)s1 |
| 7.3 | Cc1cccc(-c2nc(N)sc2-c2ccncc2)c1 |
| 5.3 | Cc1cccc(-c2nc(-c3ccc(O)cc3)sc2-c2ccncc2)c1 |
